Experimental data: patent US10385014B2, “Acyloxyalkyl carbamate prodrugs, methods of synthesis and use” (ARBOR PHARMACEUTICALS, LLC, priority 2003, dated 2019)

Assays:
[1] = animal models; cited from earlier work
[2] = Caco-2 homogenate S9 stability; type: in vitro ADME; conditions: Caco-2 S9 (0.5 mg protein per mL), 5 μM, 37° C.
Method: Caco-2 Homogenate S9 Stability: Caco-2 cells were grown for 21 days prior to harvesting. Culture medium was removed and cell monolayers were rinsed and scraped off into ice-cold 10 mM sodium phosphate/0.15 M potassium chloride, pH 7.4. Cells were lysed by sonication at 4° C. using a probe sonicator. Lysed cells were then transferred into 1.5 mL centrifuge vials and centrifuged at 9000 g for 20 min at 4° C. The resulting supernatant (Caco-2 cell homogenate S9 fraction) was aliquoted into 0.5 mL vials and stored at −80° C. until used.
For stability studies, prodrug (5 μM) was incubated in Caco-2 homogenate S9 fraction (0.5 mg protein per mL) for 60 min at 37° C. Concentrations of intact prodrug and released baclofen were determined at zero time and 60 minutes using LC/MS/MS.

[3] = Prodrug stability in rat plasma in vitro; type: in vitro ADME; conditions: 2.0 μM, 37° C.
Method: (§1) The stabilities of prodrugs were evaluated in one or more in vitro systems using a variety of tissue preparations following methods known in the art. The chemical stability of prodrugs in aqueous buffers at pH's of 2.0, 7.4 and 8.0 were also measured. […] Each preparation was incubated with test compound at 37° C. for one hour. Aliquots (50 μL) were removed at 0, 30, and 60 min and quenched with 0.1% trifluoroacetic acid in acetonitrile. Samples were then centrifuged and analyzed by LC/MS/MS (see Example 86 below for method details).

[4] = Prodrug stability in human liver S9; type: in vitro ADME; conditions: Human Liver S9 (0.5 mg/mL), 2.0 μM, NADPH, 37° C.
Method: as §1

Caco-2 cells = assay: Caco-2 cellular permeability of prodrugs; type: in vitro ADME; conditions: Caco-2 monolayer, ratio of Papp values
Method: For example, cellular permeability may be evaluated by examining the flux of a prodrug across a cultured polarized cell monolayer (e.g., Caco-2 cells). Caco-2 cells obtained from continuous culture (passage less than 28) were seeded at high density onto Transwell polycarbonate filters. Cells were maintained with DMEM/10% fetal calf serum+0.1 mM nonessential amino acids+2 mM L-Gln, 5% CO2/95% O2, 37° C. until the day of the experiment. Permeability studies were conducted at pH 6.5 apically (in 50 mM MES buffer containing 1 mM CaCl2, 1 mM MgCl2, 150 mM NaCl, 3 mM KCl, 1 mM NaH2PO4, 5 mM glucose) and pH 7.4 basolaterally (in Hanks' balanced salt solution containing 10 mM HEPES) in the presence of efflux pump inhibitors (250 μM MK-571, 250 μM Verapamil, 1 mM Ofloxacin). Inserts were placed in 12 or 24 well plates containing buffer and incubated for 30 min at 37 C.°. Prodrug (200 μM) was added to the apical or basolateral compartment (donor) and concentrations of prodrug and/or released parent drug in the opposite compartment (receiver) were determined at intervals over 1 hour using LC/MS/MS. Values of apparent permeability (Papp) were calculated using the equation: Papp=Vr(dC/dt)//(ACo)
Here Vr is the volume of the receiver compartment in mL; dC/dt is the total flux of prodrug and parent drug (μM/s), determined from the slope of the plot of concentration in the receiver compartment versus time; Co is the initial concentration of prodrug in μM; A is the surface area of the membrane in cm^2.

[5] = Prodrug stability in rat liver S9; type: in vitro ADME; conditions: Rat Liver S9 (0.5 mg/mL), 2.0 μM, NADPH, 37° C.
Method: as §1

[6] = Chemical stability of prodrugs in aqueous buffers; type: physicochemical
Method: as §1

[7] = Prodrug stability in human plasma in vitro; type: in vitro ADME; conditions: 2.0 μM, 37° C.
Method: as §1

pancreatin = assay: Pancreatin stability; type: in vitro ADME, porcine; conditions: 1% (w/v) pancreatin, 5 μM, pH 7.5, 37° C.
Method: Pancreatin Stability: Stability studies were conducted by incubating prodrug (5 μM) with 1% (w/v) pancreatin (Sigma, P-1625, from porcine pancreas) in 0.025 M Tris buffer containing 0.5 M NaCl (pH 7.5) at 37° C. for 60 min. The reaction was stopped by addition of 2 volumes of methanol. After centrifugation at 14,000 rpm for […], the supernatant was removed and analyzed by LC/MS/MS.

Compound | absorption following administration into the colon [1] | % of Baclofen Released after 60 min [2] [%] | % of Prodrug Remaining after 60 min [2] [%] | % of Baclofen Released after 60 min [3] [%] | % of Prodrug Remaining after 60 min [3] [%] | % of Baclofen Released after 60 min [4] [%] | % of Prodrug Remaining after 60 min [4] [%] | Ratio A-B/B-A (Caco-2 cells) | % of Baclofen Released after 60 min [5] [%] | % of Prodrug Remaining after 60 min [5] [%] | % of Baclofen Released after 60 min ([6]; aqueous buffer pH 2.0, 37° C.) [%] | % of Prodrug Remaining after 60 min ([6]; aqueous buffer pH 2.0, 37° C.) [%] | % of Baclofen Released after 60 min ([6]; aqueous buffer pH 7.4, 37° C.) [%] | % of Prodrug Remaining after 60 min ([6]; aqueous buffer pH 7.4, 37° C.) [%] | % of Baclofen Released after 60 min ([6]; aqueous buffer pH 8.0, 37° C.) [%] | % of Prodrug Remaining after 60 min ([6]; aqueous buffer pH 8.0, 37° C.) [%] | % of Baclofen Released after 60 min [7] [%] | % of Prodrug Remaining after 60 min [7] [%] | % of Prodrug Remaining after 60 min (pancreatin) [%] | % of Baclofen Released after 60 min (pancreatin) [%]
NCC(CC(=O)O)c1ccc(Cl)cc1 (racemic) [Baclofen, (±)-4-Amino-3-(4-chlorophenyl)butanoic acid] | poorly absorbed | – | – | – | – | – | – | – | – | – | – | – | – | – | – | – | – | – | – | –
CCCC(=O)OCOC(=O)NC[C@H](CC(=O)[O-])c1ccc(Cl)cc1.[Na+] [(16), Sodium 4-[(Butanoyloxymethoxy)carbonylamino]-(3R)-(4-chlorophenyl)-butanoate] | – | 100 | 1 | 40 | 54 | 100 | 1 | 5.1 | 100 | 1 | 0 | 100 | 0 | 100 | 0 | 100 | 20 | 62 | 1 | –
CC(C)C(=O)OCOC(=O)NC[C@H](CC(=O)[O-])c1ccc(Cl)cc1.[Na+] [(18), Sodium 4-[(Isobutanoyloxymethoxy)carbonylamino]-(3R)-(4-chlorophenyl)-butanoate] | – | 100 | 1 | 60 | 39 | 100 | 2 | 1.1 | 100 | 1 | 0 | 105 | 0 | 95 | 0 | 102 | 27 | 61 | 2 | –
CC(=O)OC(C)OC(=O)NC[C@H](CC(=O)[O-])c1ccc(Cl)cc1.[Na+] (stereo partly drawn) [(30), Sodium 4-[(1-Acetoxyethoxy)carbonylamino]-(3R)-(4-chlorophenyl)-butanoate] | – | 70 | 24 | 42 | 58 | 87 | 7 | 3.8 | 85 | 1 | 0 | 100 | 1 | 87 | 3 | 81 | 8 | 85 | – | 9
